Data on 4 molecules can be found in EP3563875A1, “RADIUM FOR RADIONUCLIDE THERAPY, IN COMBINATION WITH CALCIUM […] TREATMENT” (priority 2018, dated 2019).

For series [1] the following is noted: cited from earlier work.
Series [2] can be described thus: Biodistribution and elimination of 223Ra in mice after i.v. administration. The series is classed as in vivo, female outbred CD1 mice. The protocol:
(§1) The study was performed in female outbred CD1 mice imported from Charles River breeds. Animals were housed in groups of five and acclimated over five days. After acclimatization, the animals were divided into four groups. The day before the experiment the feed was taken away and at the beginning of the experiment itself the animals were weighed and placed in cages individually on a nonwoven fabric. After administration of ^223Ra (ca 200 kBq/animal in 0.05 ml of physiological saline) through vena caudalis, excrements were collected after one and four hours; after 24 hours, five mice were sacrificed from each group, another five were sacrificed after 96 hours. Blood, heart, lung, liver, pancreas, spleen, kidney, urinary bladder, wall of the colon, colon content, stomach, stomach content, thyroid gland, brain, femur, ovaries, parts of skin and muscles, and excrements from each mouse were removed. The organs and excrements in the measuring vessels were weighed and measured in a well of NaI (T1) scintillation detector.
Ten mice were medicated with CaCl2 in the concentration of 1.11 g/L for one week prior to administration of ^223Ra. The solution was used to feed per os ad libitum throughout the experiment. Table 3. Biodistribution of 223Ra with CaCl2
15 mice were pre-medicated with vitamin D3, 160 IU/mouse (0.02 mL of triglyceride oil solution of vitamin D3; 0.2 mg/ml) administered per os with part of the feed, three times a week for one week prior to administration of ^223Ra. Five of these mice were eliminated during the experiment because they refused vitamin intake. Table 4. Biodistribution of 223Ra with vitamin D3
Ten mice were medicated with zoledronic acid; 0.1 mL preparation/mouse was taken from the 4 mg/100 mL infusion solution and administered subcutaneously twice a week for one week before administration of ^223Ra. Table 5. Biodistribution of 223Ra with zoledronic acid
Ten mice were used as a control group. Table 6. Biodistribution of 223Ra
Experimental layout was analogous to Example 1 or 2. In the mouse model, the animals were pre-medicated by oral administration of L-arginine for one week. L-arginine was added to the mouse food once a day. The day before administration of radium, Ca2^+ was administered orally in the form of a soluble salt. Subsequently, Ra-223 was administered intravenously as a solution of RaCl2 in physiological NaCl saline.
Experimental layout was analogous to Example 3. In the mouse model, the animals were pre-medicated by subcutaneous injection of calcitonin for one week so that its serum concentration is about 5 nM. Two days before administration of Ra-223, Ca^2+ was administered orally in the form of a soluble salt. Subsequently, Ra-223 was administered intravenously as a solution.

For series [3] the following is noted: intravenously or subcutaneously; cited from earlier work.
Series [4] in a line: Biodistribution and elimination of 223Ra in mice after i.v. administration. In kind it is in vivo, female outbred CD1 mice. Particulars: one week pre-medication, oral soluble Ca2+ salt before Ra-223 i.v.; result in words. The protocol: as §1, with “detector. […]” for “detector.”
Experimental layout was analogous to Example 1 or 2. In the mouse model, the animals were pre-medicated by oral administration of L-arginine for one week. L-arginine was added to the mouse food once a day. The day before administration of radium, Ca2^+ was administered orally in the form of a soluble salt. […]

For the molecule `[Cl][223Ra][Cl]` [223Ra, radium-223 dichloride], in series [1] (24 hours after injection), the “activity in the blood” value is “less than one percent”. Moreover, the “administered activity remains in the blood” value in series [1] (after four hours) is “approximately four percent”. For the same molecule, the volume of distribution entry in series [1] (after intravenous injection) is reported as “higher than the blood volume”. Further, the “activity remains in the blood” value in series [1] (fifteen minutes after the injection) is “about 20%”. Also, in series [1] (whole-body measurement seven days after injection, on average), the “activity administered excreted from the body” value is listed as 76%. Further, the “uptake in other organs such as the heart, liver, kidney, urinary bladder, and spleen” value in series [1] (within four hours after injection) was “No significant uptake”. The “Kidney %ID/g after 24 h” value in series [2] (223Ra ca 200 kBq/animal i.v., kidney, 24 h) is 1.76 %ID/g. For the same molecule, the “Kidney %ID/g after 96 h” value in series [2] (223Ra ca 200 kBq/animal i.v., kidney, 96 h) was 0.32 %ID/g. Moreover, the “Large intestine content %ID/g after 24 h” value in series [2] (223Ra ca 200 kBq/animal i.v., large intestine content, 24 h) worked out at 2.14 %ID/g. Besides, the “Large intestine content %ID/g after 96 h” value in series [2] (223Ra ca 200 kBq/animal i.v., large intestine content, 96 h) is recorded as 0.27 %ID/g. Moreover, the “Left femur %ID/g after 24 h” value in series [2] (223Ra ca 200 kBq/animal i.v., left femur, 24 h) is 13.37 %ID/g. Moreover, the “Left femur %ID/g after 96 h” value in series [2] (223Ra ca 200 kBq/animal i.v., left femur, 96 h) stood at 10.33 %ID/g. The “Liver %ID/g after 24 h” value in series [2] (223Ra ca 200 kBq/animal i.v., liver, 24 h) worked out at 0.17 %ID/g. The “Liver %ID/g after 96 h” value in series [2] (223Ra ca 200 kBq/animal i.v., liver, 96 h) is given as 0.10 %ID/g. The “Spleen %ID/g after 24 h” value in series [2] (223Ra ca 200 kBq/animal i.v., spleen, 24 h) was found to be 8.59 %ID/g. The “Spleen %ID/g after 96 h” value in series [2] (223Ra ca 200 kBq/animal i.v., spleen, 96 h) is on record as 6.77 %ID/g. Besides, the “Thyroid %ID/g after 24 h” value in series [2] (223Ra ca 200 kBq/animal i.v., thyroid, 24 h) is 0.39 %ID/g. Further, the “Thyroid %ID/g after 96 h” value in series [2] (223Ra ca 200 kBq/animal i.v., thyroid, 96 h) is given as 0.07 %ID/g. The “In total after 24 h eliminated in excrements” value in series [2] (223Ra in excrements, 24 h) was 33.54 ± 16.22 % ID. Also, the “In total after 96 h eliminated in excrements” value in series [2] (223Ra in excrements, 96 h) came out at 36.43 ± 12.31 % ID. Further, the “In total after 24 h eliminated in urine” value in series [2] (223Ra in urine, 24 h) turned out to be 16.24 ± 2.29 % ID. In addition, the “In total after 96 h eliminated in urine” value in series [2] (223Ra in urine, 96 h) was 17.73 ± 2.34 % ID.

As for `N=C(N)NCCC[C@H](N)C(=O)O` [L-arginine], the “Ra uptake in the organism” value in series [2] (one week pre-medication, oral soluble Ca2+ salt before Ra-223 i.v., result in words) was “Ra uptake and resorption increased in the organism”.

As for `O=P(O)(O)C(O)(Cn1ccnc1)P(=O)(O)O` [zoledronic acid], the NOAEL in series [3] is 0.02 mg/kg/day.

Consider calcitonin, for which the “Ra uptake in the organism” value in series [4] is given as “Ra-223 uptake increased in the organism”.
